From ChEMBL document CHEMBL1821627, “Medicinal chemistry as a conduit for the modulation of quorum sensing” (J Med Chem, 2010)
Where a SMILES comes first, the peptide text is derived from it. Bridges are numbered along the chain shown (N, C = ends). [ ]: non-standard residue; d: D form. NMeF = CN[C@@H](Cc1ccccc1)C(=O)O; NMeL = CN[C@@H](CC(C)C)C(=O)O; NMeS = CN[C@@H](CO)C(=O)O; Dap = NC[C@H](N)C(=O)O; Ava = NCCCCC(=O)O; Mpa = O=C(O)CCS

What was measured:
[1] = Inhibition of quorum sensing regulated bioluminescence in Vibrio harveyi
[2] = Inhibition of Staphylococcus aureus Quorum sensing system AgrC-I activation after 60 to 90 minutes by beta-lactamase reporter assay
[3] = Inhibition of Staphylococcus aureus Quorum sensing system AgrC-II activation after 60 to 90 minutes by beta-lactamase reporter assay

IC50 [1] | IC50 ([2]; read-out: IC50) | IC50 ([3]; read-out: IC50) | SMILES | further results
35 µM | – | – | NC(=S)CS(=O)(=O)c1ccccn1 | –
5.7 µM | – | – | CCOC(=S)CS(=O)(=O)c1ccc(-c2ccccc2)cc1 | –
35 µM | – | – | NC(=S)CS(=O)(=O)c1cccs1 | –
5 µM | – | – | COC(=O)c1ccc(B(O)O)cc1 | –
12 µM | – | – | O=c1ccc2ccc(O)c(O)c2o1 [DAPHNETIN] | –
59 µM | – | – | Oc1ccccc1O [CATECHOL] | –
– | 0.319 µM | 1.05 µM | CC(=O)N[C@H]1CSC(=O)[C@H](Cc2ccccc2)NC(=O)[C@H](CC(C)C)NC(=O)[C@H](CO)N(C)C(=O)[C@H](CO)NC1=O (Ac-CS[NMeS]LF; thioester 1-C) | –
138 µM | – | – | CCN(CC)C(=S)CS(=O)(=O)c1cccs1 | –
> 400 µM | – | – | CCOC(=O)CS(=O)(=O)c1ccc(-c2cncc3ccccc23)cc1 | –
22 µM | – | – | CCOC(=S)CS(=O)(=O)c1cccs1 | –
4 µM | – | – | O=C(c1ccccc1)c1ccc(O)c(O)c1O | –
– | 0.077 µM | 0.238 µM | CC(=O)N[C@H]1CSC(=O)[C@H](Cc2ccccc2)NC(=O)[C@H](CC(C)C)NC(=O)CNC(=O)CNC1=O (Ac-CGGLF; thioester 1-C) | –
4 µM | – | – | OB(O)c1ccc(OCc2ccccc2)cc1 | –
– | 1.39 µM | 167 µM | CC(=O)N[C@H]1CNC(=O)[C@H](Cc2ccccc2)NC(=O)[C@H](CC(C)C)NC(=O)[C@H](CO)NC(=O)[C@H](CO)NC1=O (Ac-[Dap]SSLF; lactam 1-C) | –
158 µM | – | – | CCOC(=O)CS(=O)(=O)c1ccc(-c2ccc3c(c2)OCCO3)cc1 | –
4 µM | – | – | Cc1ccc(B(O)O)c(F)c1 | –
– | – | – | CC(=O)N[C@H]1CSC(=O)[C@H](Cc2ccccc2)N(C)C(=O)[C@H](CC(C)C)NC(=O)[C@H](CO)NC(=O)[C@H](CO)NC1=O (Ac-CSSL[NMeF]; thioester 1-C) | IC50 [2]: Not Active; IC50 [3]: Not Active
8.7 µM | – | – | CCOC(=O)CS(=O)(=O)c1ccc(-c2ccccc2)cc1 | –
– | 1.14 µM | 507 µM | CC(=O)N[C@H]1CSC(=O)[C@H](Cc2ccccc2)NC(=O)[C@H](CC(C)C)NC(=O)CCCCNC1=O (Ac-C[Ava]LF; thioester 1-C) | –
– | – | – | CC(=O)N[C@H]1CSC(=O)[C@H](Cc2ccccc2)NC(=O)[C@H](CC(C)C)N(C)C(=O)[C@H](CO)NC(=O)[C@H](CO)NC1=O (Ac-CSS[NMeL]F; thioester 1-C) | IC50 [2]: Not Active; IC50 [3]: Not Active
6 µM | – | – | N#Cc1ccc(B(O)O)cc1 | –
– | 0.189 µM | 1.16 µM | CC(=O)N[C@H]1CSC(=O)[C@H](Cc2ccccc2)NC(=O)[C@H](CC(C)C)NC(=O)[C@H](CO)NC(=O)CNC1=O (Ac-CGSLF; thioester 1-C) | –
4 µM | – | – | O=Cc1ccc(O)c(O)c1O | –
– | 0.04 µM | 0.194 µM | CC(=O)N[C@H]1CSC(=O)[C@H](Cc2ccccc2)NC(=O)[C@H](CC(C)C)NC(=O)CNC(=O)[C@H](CO)NC1=O (Ac-CSGLF; thioester 1-C) | –
2 µM | – | – | Oc1cccc(O)c1O [PYROGALLOL] | –
– | 1.68 µM | 47.3 µM | CC(C)C[C@@H]1NC(=O)[C@H](CO)NC(=O)[C@H](CO)NC(=O)CCSC(=O)[C@H](Cc2ccccc2)NC1=O ([Mpa]SSLF; thioester 1-C) | –
– | 0.639 µM | 7.88 µM | CC(=O)N[C@H]1CSC(=O)[C@H](Cc2ccccc2)NC(=O)[C@H](CC(C)C)NC(=O)[C@H](CO)NC(=O)[C@H](CO)N(C)C1=O (Ac-C[NMeS]SLF; thioester 1-C) | –
9 µM | – | – | Cc1ccc(B(O)O)cc1F | –
> 400 µM | – | – | NC(=O)CS(=O)(=O)c1cccs1 | –

SMILES | IC50 [1] | IC50 ([2]; read-out: IC50) | IC50 ([3]; read-out: IC50) | further results
CC[C@H](C)[C@@H]1NC(=O)[C@H](Cc2ccccc2)NC(=O)[C@H](C)NC(=O)[C@@H](NC(=O)[C@@H](NC(=O)[C@H](CO)NC(=O)[C@@H](N)Cc2ccc(O)cc2)[C@@H](C)O)CSC(=O)[C@H](CSC)NC1=O (H-YSTCAFIC(Me); thioester 4-C) | – | 0.021 µM | 0.004 µM | –
